Assay results: patent US11841369B2, “Method for improving quality of therapeutic cell through real-time glutathione measurement” (CELL2IN, INC., priority 2017, dated 2023)

Legend:
hUC-MSCs [1] = test: FreSH-Tracer-based glutathione regeneration capacity (GRC) after diamide; design: species or system human; conditions: hUC-MSCs subcultured three times with AA2G 250 μg/mL, low concentration of diamide, vs naive cell group
Procedure: In addition, GH is calculated as the coefficient of variation or robust coefficient of variation of cellular FR. GRC refers to a value obtained by real-time monitoring of FR after living cells are treated with an oxidizing agent, as calculated by dividing a value obtained by subtracting AUC of a group treated with 0.1-100 mM N-ethylmaleimide (NEM) from FR AUC of an oxidizing agent (diamide, H2O2, etc.)-treated group by a value obtained by subtracting the AUC of NEM-treated group from AUC of the untreated control, and multiplying the resulting value by 100. The FR of the NEM-treated group is a value for increasing the sensitivity of a GRC value by treating it as the blank value of the FR of the cells of interest. […] To remove the MitoFreSH-Tracer from the medium before measurement, the medium was exchanged with fresh 10 mM HEPES-containing HBSS, and a fluorescence image was obtained using a confocal imaging system, Operetta. By comparing GSH levels quantified from control cells not treated with RSL3 or control cells before treated with RSL3, the distribution of GSH expression-changed cells was calculated. Based on the point where the distribution histogram is divided into two peaks, the cells were divided into GSH^High cells (right peak) and GSH^Low cells (left peak), and then a ratio of corresponding cells was expressed as a percentage (%). […]

hUC-MSCs [2] = test: CFU-F assay of hUC-MSCs; format: cell-based, human; conditions: 125 or 250 μg/mL AA2G, three days
Procedure: (§1) The inventors observed an effect of the material on stem cells by treating each stem cells with a material for enhancing a glutathione evaluation parameter. When hUC-MSCs were subcultured in a L-AA2G-containing medium, CFU-F, migration capacity, and an anti-inflammatory effect were observed. A CFU-F assay (n=3) was performed by treating hUC-MSCs with 125 or 250 μg/mL of AA2G for three days. As shown in FIGS. 16A and 16B, it was confirmed that, when AA2G was treated, CFU-F increased. In addition, as hUC-MSCs were treated with 125 or 250 μg/mL of AA2G for three days, PDGF-AA-induced migration capacity (n=3) was analyzed. As shown in FIGS. 17A and 17B, it was confirmed that the migration capacity was increased by AA2G treatment. In addition, the reduction in T cell proliferation, a reduction in T cell differentiation, and the promotion of Treg cell differentiation were observed by treating hUC-MSCs with 125 or 250 μg/mL of AA2G for three days. […] Meanwhile, hUC-MSCs were cultured with a glutathione precursor such as γ-glutamyl cysteine (GGC, 0.1, 0.25, and 0.5 mM). A CFU-F assay (n=3) was performed by treating hUC-MSCs with each concentration of GGC for 2 hours. […] In addition, SDF1α and PDGF-AA-induced migration capacities (n=3) were analyzed for hUC-MSCs without treatment with GGC, and SDF1α- and PDGF-AA-induced migration abilities (n=3) were analyzed by treating hUC-MSCs with the increasing concentrations of GGC. STI571 was used as a PDGFR kinase inhibitor. As shown in FIGS. 20A to 20C, it was confirmed that, according to an increase in GGC treatment concentration, SDF1α- and PDGF-AA-induced migration capacities were enhanced. A CFU-F assay (n=3) was performed by treating hUC-MSCs with 0.2, 1, 2, and 4 μM ferrostatin-1 and 0.1, 0.5, 1, and 2 μM liproxstatin-1 for 24 hours.

hUC-MSCs [3] = test: SDF1α- and PDGF-AA-induced migration capacity of hUC-MSCs; format: cell-based, human; conditions: 125 or 250 μg/mL AA2G, three days
Procedure: as §1, with “enhanced.” for “enhanced. A CFU-F assay (n=3) was performed by treating hUC-MSCs with 0.2, 1, 2, and 4 μM ferrostatin-1 and 0.1, 0.5, 1, and 2 μM liproxstatin-1 for 24 hours.”

O=C1O[C@H]([C@@H](O)CO)C(O)=C1O[C@H]1O[C@H](CO)[C@@H](O)[C@H](O)[C@H]1O [AA2G, ascorbic acid 2-glucoside]
increased: FreSH-Tracer-based GRC (hUC-MSCs [1]) | CFU-F (hUC-MSCs [2]) | PDGF-AA-induced migration capacity (hUC-MSCs [3])
